Holding throughout (type): biochemical
The target in one assay is T1, JAK3 (Homo sapiens, UniProt P52333).
T1 construct: purchased Carna Biosciences, Inc
T1 sequence (P52333 1-1124): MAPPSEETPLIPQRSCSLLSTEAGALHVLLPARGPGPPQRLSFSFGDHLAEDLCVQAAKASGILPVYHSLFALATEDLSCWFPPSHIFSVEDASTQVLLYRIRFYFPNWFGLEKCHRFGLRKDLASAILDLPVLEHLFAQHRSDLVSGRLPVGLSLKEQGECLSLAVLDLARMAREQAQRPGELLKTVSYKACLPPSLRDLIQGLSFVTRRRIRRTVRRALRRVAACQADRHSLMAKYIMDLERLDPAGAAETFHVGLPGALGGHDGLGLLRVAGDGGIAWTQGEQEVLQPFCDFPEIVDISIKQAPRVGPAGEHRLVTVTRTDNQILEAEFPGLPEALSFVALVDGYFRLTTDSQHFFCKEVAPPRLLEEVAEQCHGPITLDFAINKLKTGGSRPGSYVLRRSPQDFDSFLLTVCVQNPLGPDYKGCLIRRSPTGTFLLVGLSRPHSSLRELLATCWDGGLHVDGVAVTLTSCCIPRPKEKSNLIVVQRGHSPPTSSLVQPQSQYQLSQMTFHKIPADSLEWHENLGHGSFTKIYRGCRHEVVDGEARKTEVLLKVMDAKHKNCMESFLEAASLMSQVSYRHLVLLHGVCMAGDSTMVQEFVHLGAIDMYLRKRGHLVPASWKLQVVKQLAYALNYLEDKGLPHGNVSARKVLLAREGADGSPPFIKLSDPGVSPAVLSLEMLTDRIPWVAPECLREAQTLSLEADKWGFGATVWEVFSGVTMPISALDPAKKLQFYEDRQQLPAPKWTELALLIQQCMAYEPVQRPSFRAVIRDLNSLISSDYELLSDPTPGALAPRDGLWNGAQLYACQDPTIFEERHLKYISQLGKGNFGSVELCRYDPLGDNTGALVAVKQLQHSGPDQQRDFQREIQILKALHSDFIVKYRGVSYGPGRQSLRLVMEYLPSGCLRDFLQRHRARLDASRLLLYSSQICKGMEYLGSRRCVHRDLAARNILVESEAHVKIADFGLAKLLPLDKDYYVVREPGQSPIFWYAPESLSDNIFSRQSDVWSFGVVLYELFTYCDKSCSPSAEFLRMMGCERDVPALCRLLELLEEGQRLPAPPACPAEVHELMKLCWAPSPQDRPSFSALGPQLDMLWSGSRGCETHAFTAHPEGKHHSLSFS
The assay is described as follows: JAK tyrosine kinase inhibitory activity in the presence of 1 mM ATP (ELISA), JAK3. The essentials: (§1)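 Kinase reactions ran on streptavidin-coated plates in 15 mM Tris-HCl pH 7.5, 0.01% Tween-20, 1 mM DTT, 30 °C for 1 h. Enzyme was prediluted to 7.5 nM (JAK1) or 0.75 nM (JAK2, JAK3) before addition. Phosphotyrosine was detected with HRP anti-pTyr antibody and TMB at A450.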
For orientation: ELISA stands for enzyme-linked immunosorbent assay.

Another assay has as its target T2, JAK2 (Homo sapiens, UniProt O60674).
T2 construct: purchased Carna Biosciences, Inc
The assay is described as follows: JAK tyrosine kinase inhibitory activity in the presence of 1 mM ATP (ELISA), JAK2. The gist of the method:
as §1

In another assay the target is T3, JAK1 (Homo sapiens, UniProt P23458).
T3 construct: purchased Carna Biosciences, Inc
T3 sequence (P23458 whole entry): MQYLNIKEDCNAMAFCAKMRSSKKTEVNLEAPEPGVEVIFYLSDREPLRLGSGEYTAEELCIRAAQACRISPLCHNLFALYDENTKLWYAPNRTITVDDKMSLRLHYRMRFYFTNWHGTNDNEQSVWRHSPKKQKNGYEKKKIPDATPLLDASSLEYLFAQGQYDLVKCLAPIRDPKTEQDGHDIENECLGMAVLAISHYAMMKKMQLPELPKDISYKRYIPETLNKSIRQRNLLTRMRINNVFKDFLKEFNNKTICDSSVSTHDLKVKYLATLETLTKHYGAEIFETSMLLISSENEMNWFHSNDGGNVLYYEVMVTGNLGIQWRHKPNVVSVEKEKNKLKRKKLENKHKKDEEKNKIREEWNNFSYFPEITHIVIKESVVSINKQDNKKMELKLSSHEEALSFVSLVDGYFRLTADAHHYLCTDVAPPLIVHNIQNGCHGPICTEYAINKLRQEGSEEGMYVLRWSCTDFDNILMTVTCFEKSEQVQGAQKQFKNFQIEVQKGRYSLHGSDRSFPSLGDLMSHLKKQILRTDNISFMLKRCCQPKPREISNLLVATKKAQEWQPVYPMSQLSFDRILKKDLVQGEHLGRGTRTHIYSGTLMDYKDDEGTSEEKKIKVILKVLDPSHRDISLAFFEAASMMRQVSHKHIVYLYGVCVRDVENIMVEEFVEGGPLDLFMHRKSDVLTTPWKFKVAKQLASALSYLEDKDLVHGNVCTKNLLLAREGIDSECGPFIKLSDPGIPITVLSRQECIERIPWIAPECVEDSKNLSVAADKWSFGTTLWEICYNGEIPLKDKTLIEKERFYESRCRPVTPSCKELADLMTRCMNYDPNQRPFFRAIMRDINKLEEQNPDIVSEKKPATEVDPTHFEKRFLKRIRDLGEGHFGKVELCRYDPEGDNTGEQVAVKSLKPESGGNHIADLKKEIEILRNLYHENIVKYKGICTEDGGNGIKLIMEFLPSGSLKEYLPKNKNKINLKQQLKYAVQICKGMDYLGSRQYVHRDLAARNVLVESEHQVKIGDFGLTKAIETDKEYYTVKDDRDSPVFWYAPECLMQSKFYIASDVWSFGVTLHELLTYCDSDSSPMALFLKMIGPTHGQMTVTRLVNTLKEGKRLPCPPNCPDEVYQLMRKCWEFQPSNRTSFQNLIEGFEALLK
Kind of assay: JAK tyrosine kinase inhibitory activity in the presence of 1 mM ATP (ELISA), JAK1. The gist of the method:
as §1

The values that follow come from patent US9999622B2, “Pyrazolothiazole compound and medicine comprising same” (NIPPON SHINYAKU CO., LTD., priority 2014, dated 2018).

SMILES strings stand for the structures. Structures can show the parent of a compound that is named as a salt.

T2 sequence (O60674 whole entry): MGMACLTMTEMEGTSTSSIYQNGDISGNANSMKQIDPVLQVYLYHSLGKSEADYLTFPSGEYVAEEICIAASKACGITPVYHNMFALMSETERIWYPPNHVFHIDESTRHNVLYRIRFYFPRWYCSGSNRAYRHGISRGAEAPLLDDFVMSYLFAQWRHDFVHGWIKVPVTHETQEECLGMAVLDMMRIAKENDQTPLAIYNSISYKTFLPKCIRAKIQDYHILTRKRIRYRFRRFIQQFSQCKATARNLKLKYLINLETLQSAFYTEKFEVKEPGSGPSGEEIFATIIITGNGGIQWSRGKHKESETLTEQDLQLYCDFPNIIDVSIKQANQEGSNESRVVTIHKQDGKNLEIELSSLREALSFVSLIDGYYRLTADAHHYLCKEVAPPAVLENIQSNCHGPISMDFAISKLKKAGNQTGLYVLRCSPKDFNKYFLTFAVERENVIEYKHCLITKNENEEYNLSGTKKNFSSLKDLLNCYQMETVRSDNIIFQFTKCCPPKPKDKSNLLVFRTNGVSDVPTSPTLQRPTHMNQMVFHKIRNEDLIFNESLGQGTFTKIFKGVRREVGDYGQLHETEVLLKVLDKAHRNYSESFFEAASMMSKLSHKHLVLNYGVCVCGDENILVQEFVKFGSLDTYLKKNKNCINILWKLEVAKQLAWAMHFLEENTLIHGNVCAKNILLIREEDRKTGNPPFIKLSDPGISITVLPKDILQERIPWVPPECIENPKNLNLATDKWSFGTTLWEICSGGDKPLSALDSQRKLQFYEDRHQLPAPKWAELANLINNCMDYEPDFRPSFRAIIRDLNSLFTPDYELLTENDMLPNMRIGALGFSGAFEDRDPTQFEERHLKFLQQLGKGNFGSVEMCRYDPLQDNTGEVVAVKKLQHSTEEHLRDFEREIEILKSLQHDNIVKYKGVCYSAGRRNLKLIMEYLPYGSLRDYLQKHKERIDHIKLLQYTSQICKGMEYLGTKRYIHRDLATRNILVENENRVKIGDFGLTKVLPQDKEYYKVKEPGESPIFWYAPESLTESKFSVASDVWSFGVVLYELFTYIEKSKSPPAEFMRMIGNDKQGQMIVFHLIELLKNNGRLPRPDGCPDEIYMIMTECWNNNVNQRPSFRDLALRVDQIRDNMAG

With `CCN(c1cc(C(=O)N2CCC(O)CC2)nc(-c2cnn3ccsc23)n1)C(C)(C)C` [Example 133, {6-[tert-Butyl(ethyl)amino]-2-(pyrazolo[5,1-b][1,3]thiazol-7-yl)pyrimidin-4-yl}(4-hydroxypiperidin-1-yl)methanone], the IC50 on JAK3 was over 10000 nM; on JAK2 it was over 10000 nM; at JAK1, 2900 nM.
`CC(C)(C)Nc1cc(C(=O)N2CCC(NC(=O)OC3CC3)CC2)nc(-c2cnn3ccsc23)n1` [Example 135, Cyclopropyl (1-{[6-(tert-butylamino)-2-(pyrazolo[5,1-b][1,3]thiazol-7-yl)pyrimidin-4-yl]carbonyl}piperidin-4-yl)carbamate]: the IC50 was determined as 3700 nM on JAK3, 2400 nM at JAK2 and 68 nM at JAK1.
For the compound `CC(C)[C@@H](C)Nc1cc(C(=O)N2CCC(NC(=O)C(F)F)CC2)nc(-c2cnn3ccsc23)n1` [Example 136, 2,2-Difluoro-N-(1-{[6-{[(2R)-3-methylbutan-2-yl]amino}-2-(pyrazolo[5,1-b][1,3]thiazol-7-yl)pyrimidin-4-yl]carbonyl}piperidin-4-yl)acetamide], the concentration for half-maximal inhibition (IC50) at JAK3 came out at 3500 nM; at JAK2, 1400 nM; at JAK1, 490 nM.
On the same counts, the results for `CN(C)C(=O)NC1CCN(C(=O)c2cc(NCC(C)(C)C)nc(-c3cnn4ccsc34)n2)CC1` [Example 137, 3-[1-({6-[(2,2-Dimethylpropyl)amino]-2-(pyrazolo[5,1-b][1,3]thiazol-7-yl)pyrimidin-4-yl}carbonyl)piperidin-4-yl]-1,1-dimethylurea] are 4200 nM, 1400 nM and 640 nM.
In the same order, the values of `C[C@@H](Nc1cc(C(=O)N2CCC(NC(=O)N(C)C)CC2)nc(-c2cnn3ccsc23)n1)C1CC1` [Example 138, 3-(1-{[6-{[(1R)-1-Cyclopropylethyl]amino}-2-(pyrazolo[5,1-b][1,3]thiazol-7-yl)pyrimidin-4-yl]carbonyl}piperidin-4-yl)-1,1-dimethylurea] are 4300 nM, 2000 nM and 650 nM.
In the same order, the values of `CC(C)OC(=O)NC1CCN(C(=O)c2cc(NC3(C)COC3)nc(-c3cnn4ccsc34)n2)CC1` [Example 139, Propan-2-yl [1-({6-[(3-methyloxetan-3-yl)amino]-2-(pyrazolo[5,1-b][1,3]thiazol-7-yl)pyrimidin-4-yl}carbonyl)piperidin-4-yl]carbamate] are 2100 nM, 2900 nM and 43 nM.
On to `COC(=O)NC1CCN(C(=O)c2cc(NC(C3CC3)C3CC3)nc(-c3cnn4ccsc34)n2)CC1` [Example 140, Methyl [1-({6-[(dicyclopropylmethyl)amino]-2-(pyrazolo[5,1-b][1,3]thiazol-7-yl)pyrimidin-4-yl}carbonyl)piperidin-4-yl]carbamate], for which the IC50 on JAK3 was found to be 340 nM; on JAK2, 770 nM; at JAK1, 280 nM.
On the same counts, the results for `COC(=O)NC1CCN(C(=O)c2cc(Oc3ccccc3)nc(-c3cnn4ccsc34)n2)CC1` [Example 141, Methyl (1-{[6-phenoxy-2-(pyrazolo[5,1-b][1,3]thiazol-7-yl)pyrimidin-4-yl]carbonyl}piperidin-4-yl)carbamate] are over 10000 nM, over 10000 nM and 1100 nM.
In the same order, the values of `COC(=O)NC1CCN(C(=O)c2cc(NC3CCN(C(=O)OC(C)(C)C)CC3)nc(-c3cnn4ccsc34)n2)CC1` [Example 142, tert-Butyl 4-{[6-({4-[(methoxycarbonyl)amino]piperidin-1-yl}carbonyl)-2-(pyrazolo[5,1-b][1,3]thiazol-7-yl)pyrimidin-4-yl]amino}piperidine-1-carboxylate] are over 10000 nM, over 10000 nM and 1200 nM.
As for `COC(=O)NC1CCN(C(=O)c2cc(NC3CCNCC3)nc(-c3cnn4ccsc34)n2)CC1` [Example 143, Methyl (1-{[6-(piperidin-4-ylamino)-2-(pyrazolo[5,1-b][1,3]thiazol-7-yl)pyrimidin-4-yl]carbonyl}piperidin-4 yl)carbamate dihydrochloride], the IC50 is over 10000 nM at JAK3, over 10000 nM at JAK2 and 1900 nM on JAK1.
As for `COC(=O)NC1CCN(C(=O)c2cc(NC3(C#N)CC3)nc(-c3cnn4ccsc34)n2)CC1` [Example 144, Methyl [1-({6-[(1-cyanocyclopropyl)amino]-2-(pyrazolo[5,1-b][1,3]thiazol-7-yl)pyrimidin-4-yl}carbonyl)piperidin-4-yl]carbamate], the figures for the IC50 at JAK3, on JAK2 and at JAK1 were 6600 nM, over 10000 nM and 480 nM, respectively.
`COC(=O)NC1CCN(C(=O)c2nc(-c3cnn4ccsc34)nc(N[C@@H](C)C3CC3)c2OC)CC1` [Example 145, Methyl (1-{[6-{[(1S)-1-cyclopropylethyl]amino} 5 methoxy-2-(pyrazolo[5,1-b][1,3]thiazol-7-yl)pyrimidin-4-yl]carbonyl}piperidin-4-yl)carbamate]: the IC50 stood at 1400 nM at JAK3, 1200 nM at JAK2 and 270 nM at JAK1.
On the same counts, the results for `COC(=O)NC1CCN(C(=O)c2nc(-c3cnn4ccsc34)nc(N[C@H](C)C(C)(C)C)c2OC)CC1` [Example 146, Methyl (1-{[6-{[(2R)-3,3-dimethylbutan-2-yl]amino}-5-methoxy-2-(pyrazolo[5,1-b][1,3]thiazol-7-yl)pyrimidin-4-yl]carbonyl}piperidin-4-yl)carbamate] are 1400 nM, 1600 nM and 270 nM.
On the same counts, the results for `COC(=O)NC1CCN(C(=O)c2cc(N[C@H]3CCN(C(=O)OC(C)(C)C)C3)nc(-c3cnn4ccsc34)n2)CC1` [Example 147, tert-Butyl (3S)-3-{[6 {(4 [(methoxycarbonyl)amino]piperidin-1-yl}carbonyl)-2-(pyrazolo[5,1-b][1,3]thiazol-7-yl)pyrimidin-4-yl]amino}pyrrolidine-1-carboxylate] are over 10000 nM, over 10000 nM and 2600 nM.
In the same order, the values of `COC(=O)NC1CCN(C(=O)c2cc(N[C@@H]3CCN(C(=O)OC(C)(C)C)C3)nc(-c3cnn4ccsc34)n2)CC1` [Example 148, tert-Butyl (3R)-3-{[6-({4-[(methoxycarbonyl)amino]piperidin-1-yl}carbonyl)-2-(pyrazolo[5,1-b][1,3]thiazol-7-yl)pyrimidin-4-yl]amino}pyrrolidine-1-carboxylate] are over 10000 nM, over 10000 nM and 1600 nM.
Regarding `COC(=O)NC1CCN(C(=O)c2cc(N[C@H]3CCNC3)nc(-c3cnn4ccsc34)n2)CC1` [Example 149, Methyl [1-({2-(pyrazolo[5,1-b][1,3]thiazol-7-yl)-6-[(3S)-pyrrolidin-3-ylamino]pyrimidin-4-yl}carbonyl)piperidin-4-yl]carbamate dihydrochloride], the results for the 50% inhibitory concentration (IC50) at JAK3, on JAK2 and at JAK1 were over 10000 nM, over 10000 nM and 1000 nM, respectively.
Regarding `COC(=O)NC1CCN(C(=O)c2cc(N[C@@H]3CCNC3)nc(-c3cnn4ccsc34)n2)CC1` [Example 150, Methyl [1-({2-(pyrazolo[5,1-b][1,3]thiazol-7-yl)-6-[(3R)-pyrrolidin-3-ylamino]pyrimidin-4-yl}carbonyl)piperidin-4-yl]carbamate dihydrochloride], the results for the half-maximal inhibitory concentration (IC50) on JAK3, on JAK2 and on JAK1 were over 10000 nM, over 10000 nM and 5200 nM, respectively.

A word on the IC50: it is the concentration needed to halve the response being measured.
